Experimental data from patent US20240350655A1, “THIOL-CONJUGATION WITH UNSATURATED PHOSPHORUS(V) COMPOUNDS” (FORSCHUNGSVERBUND BERLIN E.V., priority 2021, published 2024).

Assays:
[1] = Second-order rate constant of the reaction with glutathione, fluorescent HPLC; settings: 1 eq. glutathione (0.5 mM), 50 mM ABC buffer, 1 mM EDTA, pH 8.5
Experimental: The second-order rate constant of the reaction between glutathione and EDANS-phosphinates CS265 and CS266 was determined according to the following procedure: The EDANS-phosphinate was reacted with 1 eq. of glutathione (0.5 mM) in the presence of 50 mM ABC buffer (ammonium bicarbonate buffer) and 1 mM EDTA at pH 8.5. The reactions were performed in a volume of 0.1 ml. The first sample (t=0) was drawn before the addition of glutathione. Samples were taken after 1, 2, 5, 12, 22 and 35 min (CS266) or after 30, 60, 120, 240 and 1440 min (CS265). Samples were drawn in a volume of 10 μl and immediately diluted into 200 μl of 50 mM NaOAc buffer at pH 3.5, to stop the reaction. Those samples were subjected to fluorescent HPLC analyses, injecting 50 μl each.

[2] = target: T1, eGFP C70M S147C (Aequorea victoria, UniProt P42212, C70M/F64L/H231L/S147C/S65T); experiment: Tandem-mass spectrometry of tryptically digested labelled eGFP; settings: 10 eq. phosphinate, PBS pH 7.4, 10% DMSO
T1 construct: protease cleavage site highlighted with subscripts; His-tag (N); protease cleavage site (N); made in house
Experimental: At first phosphinate-1 was reacted with an eGFP mutant containing a single addressable Cys (eGFP C70M S147C). Using 10 eq. phosphinate in PBS pH 7.4 containing 10% DMSO as a co-solvent, the reaction reached completion after 30 minutes (FIG. 5d).
1 in PBS (30 min, r.t.) followed by purification via 0.5 mL Zeba™ Spin Desalting Columns with 7K MWCO (Thermo Fisher Scientific, USA) into phosphate-buffer (20 mM, pH 7.5). Complete labeling was verified via intact-protein MS.

[3] = target: T1, eGFP C70M S147C; experiment: Second-order rate constant of the reaction with eGFP, intact protein-MS; settings: one equivalent GFP, Tris-buffer (pH 8.3), 90 μM, room-temperature
Experimental: Subsequently, this new compound-class was compared with other Cys-reactive electrophiles in terms of reaction kinetics. The estimation of reaction-kinetics is particularly challenging for bis-reactive reagents because the second thiol addition interferes with the analysis. […] Consequently, 2 was reacted with one equivalent GFP in Tris-buffer (pH 8.3) at a concentration of 90 μM at room-temperature.
Determination of the second-order rate constant of the reaction between eGFP (C70M S147C) and phosphinate 2. […] Reactions were carried out in triplicate. 90 μl eGFP (0.1 mM) were mixed with 10 μl of a 0.9 mM solution of phosphinate 2 in DMSO. Samples were drawn after 60, 90, 150, 210 and 300 minutes and analyzed via intact protein-MS. […] Calculated by the intensity of the deconvoluted mass in relation to the internal standard eGFP (C70M). […] The slope corresponds to the second order rate constant. Shown are mean and error of three independent measurements.

T1 sequence (P42212 with tags, fused parts or gaps F64L/S65T/C70M/S147C/H231L): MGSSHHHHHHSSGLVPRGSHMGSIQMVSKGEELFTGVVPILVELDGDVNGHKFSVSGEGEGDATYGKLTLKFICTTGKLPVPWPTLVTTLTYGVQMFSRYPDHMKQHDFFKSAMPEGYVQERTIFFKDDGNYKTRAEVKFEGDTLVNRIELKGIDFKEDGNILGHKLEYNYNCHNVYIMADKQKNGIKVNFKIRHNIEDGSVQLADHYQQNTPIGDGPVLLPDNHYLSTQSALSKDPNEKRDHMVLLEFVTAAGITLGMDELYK

SMILES: C#CP(=O)(OCC)c1cn(CCC(=O)NCCNc2cccc3c(S(=O)(=O)O)cccc23)nn1 (stereo not drawn) [CS266, EDANS-1,2,3-triazol-ethyl-ethynylphosphinate]
- reaction kinetics relative to CS265 [1]: roughly ten times faster than with CS265

SMILES: C#CP(=O)(C#C)OCC [compound 1, ethyl diethynyl phosphinate]
- amino acids modified (MS/MS) [2]: no amino acid other than Cys was modified

SMILES: C#CCCOP(=O)(C#C)C#C [compound 2, but-3-yn-1-yl-diethynylphosphinate]
- second-order rate constant [3]: ~0.47 M⁻¹ s⁻¹
